From article PMC3664642, “A Peptide against Soluble Guanylyl Cyclase α1: A New Approach to Treating Prostate Cancer” (PLoS ONE, 2013)
Where no end group is shown, it is not given here.

Assays:
Type in all cases: cell-based
[1] = system: Caspase 3/7 activity in LNCaP cells; assay: Caspase 3/7 assay, LNCaP cells; details: Fig. 5A; for increase in Caspase 3/7 activity: 10 µM, averages of three independent experiments, relative to first condition
Method: (§1) For proliferation, cells were grown in medium containing 2% FBS extracted with dextran-coated charcoal (DCC). 48 hours later, ethanol or 1 nM R1881 was added to the cells followed by peptide treatment. The MTT assay (Sigma) was used as before to determine cell number. For apoptosis, 5000 cells were seeded in 96-well plates and treated with Vehicle (DMSO), Peptide A-8R (25 µM), Etoposide (50 µM) (Sigma) at different time points. The Caspase (3/7) activity was measured using Apo-ONE Homogeneous Caspase-3/7 assay kit (Promega). PARP cleavage was also used to measure apoptosis, and is described below.
Figure 5 Peptide A-8R induces apoptosis of prostate cancer cells. (A) LNCaP, (B) PC-3, or (C) Cos cells were treated with Vehicle, Peptide A-8R (10 µM), or Etoposide (20 µM) for 0–24 hrs and subjected to a Caspase assay to measure apoptosis. Bar graphs represent averages of three independent experiments plus standard deviations. All activities are relative to the first condition, and this activity was set to 1. Asterisks indicate statistical significance (P<0.005). (D) LNCaP cells were treated with Vehicle, Peptide C-8R, Peptide A-8R, or Etoposide (each drug at 50 µM) for 8 hrs and monitored for apoptosis by measuring PARP cleavage using Western blotting. Note that β-actin was used to control for protein loading.
Supplementary file pone.0064189.s005.tif: Figure S5 ROS generation is not induced by Peptide A-8R in PC-3 cells and Peptide C-8R in LNCaP cells. (A) PC-3 cells were treated with Vehicle or different concentrations of Peptide A-8R or Peptide C-8R, as shown, or (B) LNCaP cells were treated with Vehicle or different concentrations of Peptide A-8R or Peptide C-8R, or H2O2 and monitored for ROS generation after 0–30 (A) or 30 (B) min. (C) LNCaP cells were treated with Vehicle, Peptide C-8R (10 µM), Peptide A-8R (10 µM), or Etoposide (100 µM) for 0–8 hrs and subjected to a Caspase assay to measure apoptosis. Bar graphs represent averages of three independent experiments plus standard deviations. (C) All activities are relative to the first condition, and this activity was set to either 1. Asterisks indicate statistical significance (P<0.006) of all values compared to Vehicle (B) or to 0 hour (C). (TIF) Click here for additional data file.

sGCα1 = target: T1, sGCα1 (Homo sapiens, UniProt Q02108); assay: Immunocytochemistry co-localization in LNCaP cells; details: 25 µM Biotin-labeled Peptide A-8R, 2 hrs, Fig. 2A
T1 sequence (Q02108 1-690): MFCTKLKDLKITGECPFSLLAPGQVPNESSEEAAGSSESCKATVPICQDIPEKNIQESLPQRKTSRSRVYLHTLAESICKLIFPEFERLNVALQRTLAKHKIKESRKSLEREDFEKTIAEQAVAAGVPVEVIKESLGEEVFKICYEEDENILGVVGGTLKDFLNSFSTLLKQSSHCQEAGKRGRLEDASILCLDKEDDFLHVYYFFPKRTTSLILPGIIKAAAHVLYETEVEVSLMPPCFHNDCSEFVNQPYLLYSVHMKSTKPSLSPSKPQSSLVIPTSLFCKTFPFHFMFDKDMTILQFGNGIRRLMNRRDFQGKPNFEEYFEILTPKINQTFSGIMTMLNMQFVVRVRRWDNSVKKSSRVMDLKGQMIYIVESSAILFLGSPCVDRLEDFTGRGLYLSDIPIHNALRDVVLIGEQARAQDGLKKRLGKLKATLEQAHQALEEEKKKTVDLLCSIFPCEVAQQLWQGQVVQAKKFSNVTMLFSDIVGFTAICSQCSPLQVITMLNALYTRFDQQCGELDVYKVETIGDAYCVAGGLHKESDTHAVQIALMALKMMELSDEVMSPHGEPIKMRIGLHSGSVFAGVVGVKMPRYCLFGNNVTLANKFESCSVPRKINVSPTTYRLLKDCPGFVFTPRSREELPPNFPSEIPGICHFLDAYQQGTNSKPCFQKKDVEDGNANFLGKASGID
Method: Immunocytochemistry was used to study the subcellular localization of sGCα1 and Biotin-labeled Peptide-8R in LNCaP cells. FITC-labeled anti-sGCα1 antibody (1∶100 dilution; Santa Cruz Biotechnology), anti-Biotin antibody (1∶200; Santa Cruz Biotechnology) were used for immunocytochemisty as described.
Figure 2 Peptide A-8R interacts with sGCα1 in prostate cancer cells. (A) LNCaP cells were treated with 25 µM Biotin-labeled Peptide A-8R for 2 hrs and subjected to immunocytochemistry using anti-sGCα1 or anti-Biotin antibody to measure subcellular co-localization of endogenous sGCα1 and Peptide A-8R. DAPI was used to stain nuclei. (B) LNCaP cytosolic extracts were incubated with Peptide A-8R-Biotin and subjected to purification using streptavidin-agarose. This pull-down experiment was repeated with competing excess amount of unlabeled Peptide C-8R or Peptide A-8R. In both cases Western blotting was used to measure the co-purification of sGCα1. (C) LNCaP cell extract was incubated with different concentrations of Peptide A-8R-FITC and endogenous sGCα1 was immunoprecipitated. Co-purified Peptide A-8R-FITC was quantified by measuring fluorescence signal emission. Nonlinear regression analysis was used to determine an affinity for Peptide A-8R binding to sGCα1. […] Cell number was measured after 0–48 hrs of incubation. […]

PC-3 cells = assay: Proliferation/cytotoxicity, sGCα1-deficient PC-3 cells (MTT); details: different concentrations, Fig. 3E
Method: LNCaP, C81, PC-3 and Cos cells were grown as previously described. CWR-22Rv1 cells were cultured in RMPI-1640 medium with 10% FBS and 50 µg/ml Gentamicin (Gibco). Control siRNA, sGCα1 siRNA and AKT siRNA (Dharmacon) at 50 nM final concentration was transfected into cells using Lipofectamine siMAX (Invitrogen).
as §1
Vehicle or different concentrations of Peptide A-8R or C-8R, as shown, was added to (A) hormone-dependent LNCaP cells grown in 2% serum without or with 1 nM R1881, (C) castration-resistant C81 or CWR-22Rv1 cells, or (E) sGCα1-deficient PC-3 or Cos cells. Cell number was measured after various days of incubation. Data points represent averages of three independent experiments plus standard deviations. […]

With Ac-TFCKAFPFHIIRRRRRRRR [Peptide A-8R] as the substance, how does the “increase in Caspase 3/7 activity” value ([1]; 1 hour) read?
Its value is 2 fold.

What about the “increase in Caspase 3/7 activity” value ([1]; 8 hrs) of the same substance?
Its value is roughly 4 fold.

What about the “speed of Caspase 3/7 induction relative to Etoposide” value [1] of the same substance?
The value was “much faster than the well-studied apoptosis-inducing drug Etoposide”.

And the “Caspase 3/7 activity” value ([1]; Peptide 10 µM, Etoposide 20 µM, 24 hrs)?
The value was “diminished to Vehicle levels”.

And the “co-localization with sGCα1” value (sGCα1)?
Its value is “colocalizes with sGCα1 only in the cytoplasm of LNCaP cells”.

What about the “effect on PC-3 cells” value (PC-3 cells) of the same substance?
The value was “little to no effect”.
